These results are taken from patent US20220002267A1, “TYROSINE KINASE 2 INHIBITORS, PREPARATION METHODS AND MEDICINAL USES THEREOF” (Eternity Bioscience Inc., priority 2020, published 2022).

In experiment [1] the test system is Tyk2-mediated, IFNα-induced STAT1 phosphorylation in human Kit225 T cell line. The experiment in a line: IFNα_Kit225 T Cell Assay (phosphorylated-STAT1, AlphaLISA). The format is cell-based. The conditions noted are these: Kit225 cells, compound 1 hour, human recombinant IFNα 20 minutes, pSTAT1; read-out: IFN-α Kit225 (IC50). Here is the method:
(§1) Kit225 cells were seeded in 384-well plate at a density of 0.5×10^5 cells/well in 4 μL HBSS, and incubated for 2 hours in a humidified, 5% CO2 cell culture incubator at 37° C. The cells were treated with serial diluted compounds for 1 hour and stimulated with human recombinant IFNα (Biolegend) for 20 minutes. The treated cells were then lysed and cellular phosphorylated-STAT1 levels were measured by AlphaLISA (PerkinElmer) according to the manufacture's instructions. Inhibition data were calculated by comparison to vehicle control wells for 0% inhibition and non-stimulated control wells for 100% inhibition. Dose response curves were then generated to determine the concentration required to suppress 50% of cellular response (IC50) as derived by non-linear regression analysis using GraphPad Prism.

The target in a further experiment is T1, Tyk2 JH2 Pseudokinase (Homo sapiens, UniProt P29597).
T1 construct: purchased Eurofins DiscoverX Corporation (CRO); host or cells: E. coli BL21-derived host (T7 phage) or HEK-293 cells
T1 sequence (P29597 589-875 limits assumed): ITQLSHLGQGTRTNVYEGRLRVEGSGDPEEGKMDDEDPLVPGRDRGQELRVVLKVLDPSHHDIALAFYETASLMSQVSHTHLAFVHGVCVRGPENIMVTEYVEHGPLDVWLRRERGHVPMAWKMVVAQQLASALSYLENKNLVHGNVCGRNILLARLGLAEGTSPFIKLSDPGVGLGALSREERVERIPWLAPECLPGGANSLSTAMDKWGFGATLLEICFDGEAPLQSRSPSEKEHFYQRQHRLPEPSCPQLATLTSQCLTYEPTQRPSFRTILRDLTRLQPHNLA
In words: KdELECT Competition Binding Assay. The conditions noted are these: 11-point 3-fold dilution series; performed by Eurofins DiscoverX. Here is the method: The KdELECT Competition Binding Assay is performed by a CRO, Eurofins DiscoverX Corporation following the established standard protocol (DiscoverX, San Diego, Calif.). Briefly, Kinase-tagged T7 phage strains were prepared in an E. coli host derived from the BL21 strain. E. coli were grown to log-phase and infected with T7 phage and incubated with shaking at 32° C. until lysis. The lysates were centrifuged and filtered to remove cell debris. The remaining kinases were produced in HEK-293 cells and subsequently tagged with DNA for qPCR detection. Streptavidin-coated magnetic beads were treated with biotinylated small molecule ligands for 30 minutes at room temperature to generate affinity resins for kinase assays. The liganded beads were blocked with excess biotin and washed with blocking buffer (SeaBlock (Pierce), 1% BSA, 0.05% Tween 20, 1 mM DTT) to remove unbound ligand and to reduce nonspecific binding. Binding reactions were assembled by combining kinases, liganded affinity beads, and test compounds in 1× binding buffer (20% SeaBlock, 0.17×PBS, 0.05% Tween 20, 6 mM DTT). Test compounds were prepared as 111-fold stocks in 100% DMSO. Kds were determined using an 11-point 3-fold compound dilution series with three DMSO control points. All compounds for Kd measurements are distributed by acoustic transfer (non-contact dispensing) in 100% DMSO. The compounds were then diluted directly into the assays such that the final concentration of DMSO was 0.9%. All reactions performed in polypropylene 384-well plate. Each was a final volume of 0.02 mL. The assay plates were incubated at room temperature with shaking for 1 hour and the affinity beads were washed with wash buffer (1×PBS, 0.05% Tween 20). The beads were then re-suspended in elution buffer (1×PBS, 0.05% Tween 20, 0.5 μM non-biotinylated affinity ligand) and incubated at room temperature with shaking for 30 minutes. The kinase concentration in the eluates was measured by quantitative PCR.
Compound Handling: An 11-point 3-fold serial dilution of each test compound was prepared in 100% DMSO at 100-fold final test concentration and subsequently diluted to 1-fold in the assay (final DMSO concentration=1%). Most Kds were determined using a compound top concentration=30,000 nM. If the initial Kd determined was <0.5 nM (the lowest concentration tested), the measurement was repeated with a serial dilution starting at a lower top concentration.

In experiment [2] the test system is Tyk2-mediated, IL23-induced STAT3 phosphorylation in human Kit225 T cell line. The experiment in a line: IL-23_Kit225 T Cell Assay (phosphorylated-STAT3, AlphaLISA). The format is cell-based. The conditions noted are these: Kit225 cells, compound 1 hour, human recombinant IL-23 20 minutes, pSTAT3. Here is the method:
as §1, with “Kit225 cells (licensed from Professor Toshiyuki Hori, Ritsumeikan University, Japan) were seeded” for “Kit225 cells were seeded”, “density of 1×10^5 cells/well in” for “density of 0.5×10^5 cells/well in”, “4 μL Hank's Balanced Salt Solution (HBSS, Gibco), and incubated” for “4 μL HBSS, and incubated”, “human recombinant IL-23 (R&D Systems) for 20” for “human recombinant IFNα (Biolegend) for 20”, “and cellular phosphorylated-STAT3 levels were” for “and cellular phosphorylated-STAT1 levels were”
(Alpha assays give light when donor and acceptor beads are brought close together.)

Experiment [3] concerns experimental autoimmune disease models (psoriasis, SLE, and IBD). As to conditions: cited from earlier work.
In experiment [4] the test system is IL-12/IL-23 and Type I IFN pathways. As to conditions: Tokarski et al. 2015; cited from earlier work.

In general, IC50 refers to the point on the concentration scale where inhibition reaches its midpoint. Usually Kd stands for the constant that tells how readily two partners part at equilibrium. The low end stands for a tighter complex, the high end for a looser complex. Regarding `CNC(=O)c1nnc(Nc2cccc(N3CCC3)n2)cc1Nc1cccc(-c2ncn(C)n2)c1OC` [Example A3, 6-((6-(azetidin-1-yl)pyridin-2-yl)amino)-4-((2-methoxy-3-(1-methyl-1H-1,2,4-triazol-3-yl)phenyl)amino)-N-methylpyridazine-3-carboxamide], the IC50 was 6 nM in experiment [1] and 15 nM in experiment [2]. In addition, binding at Tyk2 JH2 Pseudokinase was characterised by a dissociation constant (Kd) of 0.011 nM.
For `CNC(=O)c1nnc(Nc2ccc(N3CC(F)(F)C3)cn2)cc1Nc1cccc(-c2ncn(C)n2)c1OC` [Example A2, 6-((5-(3,3-difluoroazetidin-1-yl)pyridin-2-yl)amino)-4-((2-methoxy-3-(1-methyl-1H-1,2,4-triazol-3-yl)phenyl)amino)-N-methylpyridazine-3-carboxamide] the same measures were 25 nM, 31 nM and 0.0063 nM.
For `[2H]C([2H])([2H])NC(=O)c1nnc(Nc2ccc(C3(O)COC3)cn2)cc1Nc1cccc(-c2ncn(C)n2)c1OC` [Example A5, 6-((5-(3-hydroxyoxetan-3-yl)pyridin-2-yl)amino)-4-((2-methoxy-3-(1-methyl-1H-1,2,4-triazol-3-yl)phenyl)amino)-N-(methyl-d3)pyridazine-3-carboxamide] the same measures were 230 nM, 38 nM and 0.0043 nM.
For `CNC(=O)c1nnc(Nc2ccc(N3CCC3)cn2)cc1Nc1cccc(-c2ncn(C)n2)c1OC` [Example A1, 6-((5-(azetidin-1-yl)pyridin-2-yl)amino)-4-((2-methoxy-3-(1-methyl-1H-1,2,4-triazol-3-yl)phenyl)amino)-N-methylpyridazine-3-carboxamide] the same measures were 11 nM, 6.7 nM and 0.067 nM.
As for `[2H]C([2H])([2H])NC(=O)c1nnc(Nc2ccc(N3CC(OC)C3)cn2)cc1Nc1cccc(-c2ncn(C)n2)c1OC` [Example A4, 4-((2-methoxy-3-(1-methyl-1H-1,2,4-triazol-3-yl)phenyl)amino)-6-((5-(3-methoxyazetidin-1-yl)pyridin-2-yl)amino)-N-(methyl-d3)pyridazine-3-carboxamide], the results for the concentration for half-maximal inhibition (IC50) in experiment [1] and in experiment [2] were 83 nM and 5.9 nM, respectively. On Tyk2 JH2 Pseudokinase, this compound came in with a Kd of 0.0052 nM.
For BMS986165, the “in vivo efficacy in experimental autoimmune disease models” value in experiment [3] was “substantial in vivo efficacy”. Further, in experiment [4], the “block of IL-12/IL-23 and Type I IFN pathways” value is “effectively block”.
